# In ChEMBL document CHEMBL1145498, “A systematic interaction map of validated kinase inhibitors with Ser/Thr kinases” (Proc Natl Acad Sci U S A, 2007):
# Target: Serine/threonine-protein kinase pim-1 (Homo sapiens) (UniProt P11309)
# Sequence (P11309 whole entry, looked up): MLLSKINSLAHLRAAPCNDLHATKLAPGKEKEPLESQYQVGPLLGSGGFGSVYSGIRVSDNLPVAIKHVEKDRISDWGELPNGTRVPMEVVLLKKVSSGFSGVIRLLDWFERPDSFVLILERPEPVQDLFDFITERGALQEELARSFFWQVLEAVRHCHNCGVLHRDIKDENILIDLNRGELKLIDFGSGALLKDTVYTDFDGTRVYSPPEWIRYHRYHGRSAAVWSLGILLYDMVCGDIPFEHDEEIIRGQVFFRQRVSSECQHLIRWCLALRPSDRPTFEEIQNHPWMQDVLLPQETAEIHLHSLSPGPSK
row,ΔTm,Compound
1,4.5 °C,O=C1Nc2ccccc2/C1=C1/Nc2ccccc2/C1=N\O
2,-1.4 °C,Oc1ccc(-c2nc(-c3ccc(F)cc3)c(-c3ccncc3)[nH]2)cc1

# Target: T1, Lymphokine-activated killer T-cell-originated protein kinase (Homo sapiens) (UniProt Q96KB5)
# T1 sequence (whole entry): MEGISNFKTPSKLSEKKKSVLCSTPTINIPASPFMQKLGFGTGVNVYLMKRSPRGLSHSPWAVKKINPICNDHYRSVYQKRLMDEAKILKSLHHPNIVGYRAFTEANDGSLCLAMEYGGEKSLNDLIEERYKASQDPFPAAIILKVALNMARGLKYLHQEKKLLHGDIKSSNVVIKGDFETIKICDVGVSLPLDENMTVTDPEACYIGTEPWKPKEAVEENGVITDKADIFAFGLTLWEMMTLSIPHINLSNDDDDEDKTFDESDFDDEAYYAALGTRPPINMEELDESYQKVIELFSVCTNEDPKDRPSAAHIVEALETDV
row,Compound,ΔTm
1,O=C1Nc2ccccc2/C1=C1/Nc2ccccc2/C1=N\O,0 °C
2,Oc1ccc(-c2nc(-c3ccc(F)cc3)c(-c3ccncc3)[nH]2)cc1,0.3 °C

# Target: T2, Serine/threonine-protein kinase 17A (Homo sapiens) (UniProt Q9UEE5)
# T2 sequence (whole entry): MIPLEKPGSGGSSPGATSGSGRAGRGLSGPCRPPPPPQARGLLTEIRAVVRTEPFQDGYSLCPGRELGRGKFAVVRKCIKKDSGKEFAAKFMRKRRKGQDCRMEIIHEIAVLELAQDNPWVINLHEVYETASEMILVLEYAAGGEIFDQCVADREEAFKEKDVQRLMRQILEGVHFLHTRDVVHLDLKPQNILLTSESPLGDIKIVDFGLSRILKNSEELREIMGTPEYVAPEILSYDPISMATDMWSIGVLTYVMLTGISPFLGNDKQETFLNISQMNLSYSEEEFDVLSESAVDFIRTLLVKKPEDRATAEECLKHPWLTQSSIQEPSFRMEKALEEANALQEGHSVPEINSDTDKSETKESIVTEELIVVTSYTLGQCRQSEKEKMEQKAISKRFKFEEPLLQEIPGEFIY
row,ΔTm,Compound
1,9.9 °C,O=C1Nc2ccccc2/C1=C1/Nc2ccccc2/C1=N\O
2,1 °C,Oc1ccc(-c2nc(-c3ccc(F)cc3)c(-c3ccncc3)[nH]2)cc1

# Target: Serine/threonine-protein kinase 26 (Homo sapiens) (UniProt Q9P289)
# Sequence (Q9P289 2-416 limits assumed): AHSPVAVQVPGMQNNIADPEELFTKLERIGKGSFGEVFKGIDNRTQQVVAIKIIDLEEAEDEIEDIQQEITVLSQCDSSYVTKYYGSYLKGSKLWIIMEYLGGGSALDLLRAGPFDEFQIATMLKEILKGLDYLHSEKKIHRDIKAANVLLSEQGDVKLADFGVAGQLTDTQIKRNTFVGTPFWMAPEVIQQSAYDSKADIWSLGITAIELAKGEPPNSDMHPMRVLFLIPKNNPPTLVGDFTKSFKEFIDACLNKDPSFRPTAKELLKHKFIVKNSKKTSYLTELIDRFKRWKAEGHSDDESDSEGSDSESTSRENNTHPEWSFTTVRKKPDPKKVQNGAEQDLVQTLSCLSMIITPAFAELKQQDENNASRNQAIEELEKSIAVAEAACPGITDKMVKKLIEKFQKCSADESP
row,ΔTm,Compound
1,4.4 °C,O=C1Nc2ccccc2/C1=C1/Nc2ccccc2/C1=N\O
2,0 °C,Oc1ccc(-c2nc(-c3ccc(F)cc3)c(-c3ccncc3)[nH]2)cc1

# Target: Serine/threonine-protein kinase pim-2 (Homo sapiens, UniProt Q9P1W9)
# Sequence (Q9P1W9 whole entry, looked up): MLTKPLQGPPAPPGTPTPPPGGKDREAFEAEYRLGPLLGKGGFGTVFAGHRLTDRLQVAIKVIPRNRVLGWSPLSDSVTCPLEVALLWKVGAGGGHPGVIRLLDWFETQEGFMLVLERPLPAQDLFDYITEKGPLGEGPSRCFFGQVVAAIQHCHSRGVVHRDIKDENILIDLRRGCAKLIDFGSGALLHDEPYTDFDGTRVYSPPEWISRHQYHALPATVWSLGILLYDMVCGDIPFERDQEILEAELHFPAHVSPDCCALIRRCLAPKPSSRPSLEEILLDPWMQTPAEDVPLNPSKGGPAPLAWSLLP
row,ΔTm,Compound
1,2.8 °C,O=C1Nc2ccccc2/C1=C1/Nc2ccccc2/C1=N\O
2,0.8 °C,Oc1ccc(-c2nc(-c3ccc(F)cc3)c(-c3ccncc3)[nH]2)cc1

# Target: Serine/threonine-protein kinase OSR1 (Homo sapiens) (UniProt O95747)
# Sequence (O95747 2-527 limits assumed): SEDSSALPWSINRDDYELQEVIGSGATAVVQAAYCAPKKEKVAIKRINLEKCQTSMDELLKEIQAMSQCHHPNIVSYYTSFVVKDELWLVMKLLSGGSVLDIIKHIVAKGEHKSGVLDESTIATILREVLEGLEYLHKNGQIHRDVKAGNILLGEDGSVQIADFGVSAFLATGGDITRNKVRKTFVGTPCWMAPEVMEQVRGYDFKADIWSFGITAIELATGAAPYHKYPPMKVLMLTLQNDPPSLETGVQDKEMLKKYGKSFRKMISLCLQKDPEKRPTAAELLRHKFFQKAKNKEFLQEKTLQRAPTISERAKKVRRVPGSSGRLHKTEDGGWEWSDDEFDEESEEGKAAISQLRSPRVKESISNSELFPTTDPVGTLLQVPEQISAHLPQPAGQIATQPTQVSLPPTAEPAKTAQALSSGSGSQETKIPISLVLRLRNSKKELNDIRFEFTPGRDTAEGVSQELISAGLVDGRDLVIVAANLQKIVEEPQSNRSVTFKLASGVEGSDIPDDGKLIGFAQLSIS
row,ΔTm,Compound
1,3.1 °C,O=C1Nc2ccccc2/C1=C1/Nc2ccccc2/C1=N\O
2,0.9 °C,Oc1ccc(-c2nc(-c3ccc(F)cc3)c(-c3ccncc3)[nH]2)cc1

# Target: Serine/threonine-protein kinase PAK 5 (Homo sapiens) (UniProt Q9P286)
# Sequence (Q9P286 whole entry, looked up): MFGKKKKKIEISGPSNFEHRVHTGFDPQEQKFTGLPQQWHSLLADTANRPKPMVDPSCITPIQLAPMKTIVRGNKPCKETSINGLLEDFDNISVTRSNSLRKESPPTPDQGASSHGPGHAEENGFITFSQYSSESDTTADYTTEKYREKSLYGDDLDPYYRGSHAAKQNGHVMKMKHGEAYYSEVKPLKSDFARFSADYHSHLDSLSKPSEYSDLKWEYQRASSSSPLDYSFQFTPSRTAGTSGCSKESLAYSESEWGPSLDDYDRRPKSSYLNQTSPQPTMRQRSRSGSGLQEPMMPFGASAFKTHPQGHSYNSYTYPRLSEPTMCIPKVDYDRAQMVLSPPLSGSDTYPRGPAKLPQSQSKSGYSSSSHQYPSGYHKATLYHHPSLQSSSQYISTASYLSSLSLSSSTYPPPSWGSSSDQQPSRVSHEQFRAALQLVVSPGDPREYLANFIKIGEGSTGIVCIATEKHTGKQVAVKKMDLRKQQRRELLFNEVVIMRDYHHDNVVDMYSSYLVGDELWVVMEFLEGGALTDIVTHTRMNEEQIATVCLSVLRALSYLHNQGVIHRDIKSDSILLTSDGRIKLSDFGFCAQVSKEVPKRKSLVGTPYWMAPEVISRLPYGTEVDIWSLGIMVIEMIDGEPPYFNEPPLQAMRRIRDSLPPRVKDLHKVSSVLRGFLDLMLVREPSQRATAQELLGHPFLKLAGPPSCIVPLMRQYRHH
row,ΔTm,Compound
1,3.3 °C,O=C1Nc2ccccc2/C1=C1/Nc2ccccc2/C1=N\O
2,0.5 °C,Oc1ccc(-c2nc(-c3ccc(F)cc3)c(-c3ccncc3)[nH]2)cc1

# Target: Serine/threonine-protein kinase pim-3 (Homo sapiens) (UniProt Q86V86)
row,ΔTm,Compound
1,5.2 °C,O=C1Nc2ccccc2/C1=C1/Nc2ccccc2/C1=N\O
2,1.3 °C,Oc1ccc(-c2nc(-c3ccc(F)cc3)c(-c3ccncc3)[nH]2)cc1

# Target: Calcium/calmodulin-dependent protein kinase type II subunit gamma (Homo sapiens) (UniProt Q13555)
row,ΔTm,Compound
1,5.3 °C,O=C1Nc2ccccc2/C1=C1/Nc2ccccc2/C1=N\O
2,0.6 °C,Oc1ccc(-c2nc(-c3ccc(F)cc3)c(-c3ccncc3)[nH]2)cc1

# Target: Serine/threonine-protein kinase 26 (Homo sapiens) (UniProt Q9P289)
# Remark: another data set of the same source
row,ΔTm,Compound
1,7 °C,O=C1Nc2ccccc2/C1=C1/Nc2ccccc2/C1=N\O
2,-0.4 °C,Oc1ccc(-c2nc(-c3ccc(F)cc3)c(-c3ccncc3)[nH]2)cc1

# Target: T3, Serine/threonine-protein kinase VRK1 (Homo sapiens) (UniProt Q99986)
# T3 sequence (whole entry): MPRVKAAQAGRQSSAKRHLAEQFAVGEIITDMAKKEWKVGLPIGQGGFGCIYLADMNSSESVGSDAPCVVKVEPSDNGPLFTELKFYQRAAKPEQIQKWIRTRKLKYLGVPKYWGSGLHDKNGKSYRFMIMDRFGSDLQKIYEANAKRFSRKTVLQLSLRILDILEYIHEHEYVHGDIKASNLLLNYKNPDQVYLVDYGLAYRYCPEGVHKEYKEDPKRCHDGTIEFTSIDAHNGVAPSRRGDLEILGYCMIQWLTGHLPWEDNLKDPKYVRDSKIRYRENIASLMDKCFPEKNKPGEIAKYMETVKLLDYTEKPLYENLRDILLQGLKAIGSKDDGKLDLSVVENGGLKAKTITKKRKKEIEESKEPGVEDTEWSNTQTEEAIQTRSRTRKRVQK
row,ΔTm,Compound
1,1.7 °C,O=C1Nc2ccccc2/C1=C1/Nc2ccccc2/C1=N\O
2,0 °C,Oc1ccc(-c2nc(-c3ccc(F)cc3)c(-c3ccncc3)[nH]2)cc1

# Target: Dual specificity protein kinase CLK2 (Homo sapiens) (UniProt P49760)
row,ΔTm,Compound
1,7.8 °C,O=C1Nc2ccccc2/C1=C1/Nc2ccccc2/C1=N\O
2,0.1 °C,Oc1ccc(-c2nc(-c3ccc(F)cc3)c(-c3ccncc3)[nH]2)cc1

# Target: Serine/threonine-protein kinase 25 (Homo sapiens) (UniProt O00506)
# Sequence (O00506 whole entry, looked up): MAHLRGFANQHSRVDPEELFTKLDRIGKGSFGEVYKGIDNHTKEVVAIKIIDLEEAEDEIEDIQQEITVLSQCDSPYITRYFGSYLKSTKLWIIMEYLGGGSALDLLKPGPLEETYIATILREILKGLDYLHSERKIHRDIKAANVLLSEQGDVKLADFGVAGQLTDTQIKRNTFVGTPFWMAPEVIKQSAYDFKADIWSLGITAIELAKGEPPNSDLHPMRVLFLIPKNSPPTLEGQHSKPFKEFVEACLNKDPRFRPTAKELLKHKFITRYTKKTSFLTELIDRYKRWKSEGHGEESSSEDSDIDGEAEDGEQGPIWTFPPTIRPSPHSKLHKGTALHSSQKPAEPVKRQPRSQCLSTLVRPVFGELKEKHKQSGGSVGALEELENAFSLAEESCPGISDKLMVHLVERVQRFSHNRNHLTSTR
row,ΔTm,Compound
1,4.9 °C,O=C1Nc2ccccc2/C1=C1/Nc2ccccc2/C1=N\O
2,0.5 °C,Oc1ccc(-c2nc(-c3ccc(F)cc3)c(-c3ccncc3)[nH]2)cc1

# Target: Cyclin-dependent kinase 2 (Homo sapiens, UniProt P24941)
row,ΔTm,Compound
1,9.1 °C,O=C1Nc2ccccc2/C1=C1/Nc2ccccc2/C1=N\O
2,0.4 °C,Oc1ccc(-c2nc(-c3ccc(F)cc3)c(-c3ccncc3)[nH]2)cc1

# Target: Ribosomal protein S6 kinase alpha-3 (Homo sapiens) (UniProt P51812)
# Sequence (P51812 whole entry): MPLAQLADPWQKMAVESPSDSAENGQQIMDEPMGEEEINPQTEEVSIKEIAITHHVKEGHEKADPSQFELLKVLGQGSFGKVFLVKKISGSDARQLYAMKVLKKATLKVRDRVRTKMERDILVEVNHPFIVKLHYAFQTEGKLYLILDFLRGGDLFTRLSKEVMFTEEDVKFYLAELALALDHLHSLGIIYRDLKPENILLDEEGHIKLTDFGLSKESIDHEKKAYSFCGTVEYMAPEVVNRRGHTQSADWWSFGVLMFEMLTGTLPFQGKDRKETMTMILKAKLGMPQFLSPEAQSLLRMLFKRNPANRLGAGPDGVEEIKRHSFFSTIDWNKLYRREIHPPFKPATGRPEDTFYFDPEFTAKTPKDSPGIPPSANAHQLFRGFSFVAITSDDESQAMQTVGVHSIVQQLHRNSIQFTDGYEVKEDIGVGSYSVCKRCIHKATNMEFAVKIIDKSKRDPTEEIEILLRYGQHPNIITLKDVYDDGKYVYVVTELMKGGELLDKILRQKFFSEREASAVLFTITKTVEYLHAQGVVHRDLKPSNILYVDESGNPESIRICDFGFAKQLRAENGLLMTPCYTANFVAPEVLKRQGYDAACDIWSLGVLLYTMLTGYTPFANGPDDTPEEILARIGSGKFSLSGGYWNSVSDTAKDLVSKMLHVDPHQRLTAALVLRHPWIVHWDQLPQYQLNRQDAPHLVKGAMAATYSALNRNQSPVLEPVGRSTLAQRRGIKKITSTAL
row,ΔTm,Compound
1,4.1 °C,O=C1Nc2ccccc2/C1=C1/Nc2ccccc2/C1=N\O
2,0.3 °C,Oc1ccc(-c2nc(-c3ccc(F)cc3)c(-c3ccncc3)[nH]2)cc1

# Target: Mitogen-activated protein kinase 11 (Homo sapiens, UniProt Q15759)
# Sequence (Q15759 whole entry): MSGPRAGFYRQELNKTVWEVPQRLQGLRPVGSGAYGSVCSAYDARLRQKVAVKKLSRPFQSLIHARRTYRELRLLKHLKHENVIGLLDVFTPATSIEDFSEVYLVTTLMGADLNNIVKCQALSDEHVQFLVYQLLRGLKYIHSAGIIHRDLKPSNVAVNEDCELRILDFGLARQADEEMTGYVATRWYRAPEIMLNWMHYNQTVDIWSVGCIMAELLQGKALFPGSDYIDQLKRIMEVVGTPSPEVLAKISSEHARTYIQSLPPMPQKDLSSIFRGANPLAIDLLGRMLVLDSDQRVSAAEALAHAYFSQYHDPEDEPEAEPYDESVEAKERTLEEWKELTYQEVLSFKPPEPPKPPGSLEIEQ
row,ΔTm,Compound
1,2.4 °C,O=C1Nc2ccccc2/C1=C1/Nc2ccccc2/C1=N\O
2,10.9 °C,Oc1ccc(-c2nc(-c3ccc(F)cc3)c(-c3ccncc3)[nH]2)cc1

# Target: T4, Myotonin-protein kinase (Homo sapiens) (UniProt Q09013)
# T4 sequence (whole entry): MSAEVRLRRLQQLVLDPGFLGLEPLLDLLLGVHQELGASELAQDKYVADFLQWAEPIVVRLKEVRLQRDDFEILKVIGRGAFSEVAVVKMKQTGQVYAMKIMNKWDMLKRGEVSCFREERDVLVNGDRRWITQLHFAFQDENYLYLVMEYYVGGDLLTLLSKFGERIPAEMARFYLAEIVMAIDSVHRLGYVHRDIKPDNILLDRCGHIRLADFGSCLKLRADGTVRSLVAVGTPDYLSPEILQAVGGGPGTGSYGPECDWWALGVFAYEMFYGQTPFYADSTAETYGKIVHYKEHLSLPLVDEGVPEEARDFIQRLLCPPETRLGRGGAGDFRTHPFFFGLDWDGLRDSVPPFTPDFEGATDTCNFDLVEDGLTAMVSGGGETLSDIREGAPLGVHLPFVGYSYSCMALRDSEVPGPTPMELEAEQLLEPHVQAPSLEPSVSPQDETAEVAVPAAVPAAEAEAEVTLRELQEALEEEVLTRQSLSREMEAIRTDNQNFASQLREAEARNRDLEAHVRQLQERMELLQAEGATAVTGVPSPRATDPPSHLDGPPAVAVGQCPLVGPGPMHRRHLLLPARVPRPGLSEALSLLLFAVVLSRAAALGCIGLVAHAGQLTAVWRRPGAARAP
row,ΔTm,Compound
1,2.8 °C,O=C1Nc2ccccc2/C1=C1/Nc2ccccc2/C1=N\O
2,0.2 °C,Oc1ccc(-c2nc(-c3ccc(F)cc3)c(-c3ccncc3)[nH]2)cc1

# Target: Calcium/calmodulin-dependent protein kinase type II subunit delta (Homo sapiens) (UniProt Q13557)
row,ΔTm,Compound
1,2.8 °C,O=C1Nc2ccccc2/C1=C1/Nc2ccccc2/C1=N\O
2,-0.1 °C,Oc1ccc(-c2nc(-c3ccc(F)cc3)c(-c3ccncc3)[nH]2)cc1

# Target: Dual specificity mitogen-activated protein kinase kinase 2 (Homo sapiens, UniProt P36507)
# Sequence (P36507 whole entry): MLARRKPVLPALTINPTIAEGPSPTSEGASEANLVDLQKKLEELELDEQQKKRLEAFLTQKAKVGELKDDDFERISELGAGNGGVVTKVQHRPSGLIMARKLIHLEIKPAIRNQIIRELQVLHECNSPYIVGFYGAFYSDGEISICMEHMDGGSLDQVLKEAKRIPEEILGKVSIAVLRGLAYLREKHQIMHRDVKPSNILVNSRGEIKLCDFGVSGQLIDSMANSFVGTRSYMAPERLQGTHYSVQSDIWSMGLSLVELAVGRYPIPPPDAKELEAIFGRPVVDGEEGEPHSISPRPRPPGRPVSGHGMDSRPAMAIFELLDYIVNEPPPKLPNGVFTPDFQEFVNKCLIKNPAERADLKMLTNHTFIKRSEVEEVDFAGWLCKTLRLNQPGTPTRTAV
row,ΔTm,Compound
1,5.9 °C,O=C1Nc2ccccc2/C1=C1/Nc2ccccc2/C1=N\O
2,0.9 °C,Oc1ccc(-c2nc(-c3ccc(F)cc3)c(-c3ccncc3)[nH]2)cc1

# Target: Calcium/calmodulin-dependent protein kinase type 1D (Homo sapiens) (UniProt Q8IU85)
# Sequence (Q8IU85 whole entry, looked up): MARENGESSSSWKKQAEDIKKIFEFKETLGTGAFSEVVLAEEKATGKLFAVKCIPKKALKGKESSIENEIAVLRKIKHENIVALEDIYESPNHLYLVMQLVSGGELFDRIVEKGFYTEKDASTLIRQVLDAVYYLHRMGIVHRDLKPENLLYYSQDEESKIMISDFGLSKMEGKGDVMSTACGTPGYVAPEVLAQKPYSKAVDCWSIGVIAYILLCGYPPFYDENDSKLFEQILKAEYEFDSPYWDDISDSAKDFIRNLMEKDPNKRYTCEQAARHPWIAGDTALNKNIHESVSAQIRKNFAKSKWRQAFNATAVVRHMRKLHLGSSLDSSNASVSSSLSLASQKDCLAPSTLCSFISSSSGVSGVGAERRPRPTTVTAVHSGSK
row,ΔTm,Compound
1,2.2 °C,O=C1Nc2ccccc2/C1=C1/Nc2ccccc2/C1=N\O
2,-0.1 °C,Oc1ccc(-c2nc(-c3ccc(F)cc3)c(-c3ccncc3)[nH]2)cc1

# Target: Death-associated protein kinase 3 (Homo sapiens) (UniProt O43293)
row,Compound,ΔTm
1,O=C1Nc2ccccc2/C1=C1/Nc2ccccc2/C1=N\O,2.7 °C
2,Oc1ccc(-c2nc(-c3ccc(F)cc3)c(-c3ccncc3)[nH]2)cc1,0.9 °C
